From publication PMC9331957, “Design and Validation of Nanofibers Made of Self-Assembled Peptides to Become Multifunctional Stimuli-Sensitive Nanovectors of Anticancer Drug Doxorubicin” (Pharmaceutics, 2022) come the findings set out here.

One assay relates to MDA-MB-231. Nature of the assay: Cell proliferation assay (CellTiter-Glo, ATP luminescence). Format: cell-based, human. The settings on record: MDA-MB-231, 72 h. On the procedure: The cytotoxicity profiles of the NF-Doxo and NF-Doxo-SPION were established on cancer cell line MDA-MB-231 (triple negative human breast cancer). Triple MDA-MB-231 (ECACC, Salisbury, UK) cells were cultured at 37 °C in an atmosphere containing 5% CO2. The culture medium was made of DMEM supplemented with 10% fetal bovine serum, 1% non-essential amino acid (Hyclone Laboratories, Logan, UT, USA), and 1% penicillin/streptomycin (Gibco®, Life Technologies, Paisley, UK). The cell harvesting was made with trypsin/EDTA (0.05%) (Gibco®, Life Technologies, Paisley, UK) at 80% of confluence.
Cell viability and proliferation were studied, using a luminescent test based on quantification of ATP, using the CellTiter-Glo cell proliferation assay (Promega, Madison, WI, USA). Briefly, 3.000 MDA-MB-231 cells were incubated in 100 μL of medium in 96-well plates for 24 h and then treated with different samples. A H2O2 solution at 10 mM was used as positive control and the culture medium alone was tested as a negative control. Doxo (stock solution at 5.24 mM in PBS) was used as a reference. […] Cell viability was then determined using CellTiter-Glo reagent (Promega, Madison, WI, USA). […] The luminescence values were measured with a gain at 135, with an acquisition at 0.5 s, using a microplate reader (Bio-Tek® instruments, Inc., VT, Santa Clara, CA, USA). […]

The subject of another assay is MDA-MB-231 cells. The settings on record: 1 h, 5 µM.

Description for MDA-MB-231 cells: To study the uptake of the nanofibers by cancer cells in vitro, the intrinsic fluorescence of the Doxo was followed by means of the confocal spectral imaging (CSI) technique. Briefly, the CSI consists in recording a full fluorescence spectrum from each point of a scanned optical section of the selected cell and then generating the maps (pseudo-color images) reflecting the distribution of spectral parameters (position, shape, width, intensity) in correlation with biochemical events (accumulation, interaction, metabolism, etc). The cells (SKBR3 or MDA-MB-435 cancer cell lines) were plated at a density of 5 × 10^4 cells/well onto cover glasses in 24-well plates for 1 or 6 h. […] They were analyzed under the 50× LWD objective (numerical aperture 0.75; Olympus, Tokyo, Japan) of a LabRam laser scanning confocal microspectrometer (Horiba SA, Villeneuve d’Ascq, Hauts De France, France) equipped with a 491 nm laser source (Cobolt Calypso™), an automated X–Y–Z scanning stage, a low dispersion grating (300 grooves/mm) and an air-cooled EM CCD detector. […] For fluorescence spectral images acquisition from living cells, the living cells were placed under a 50× microscope and scanned through their equatorial optical section (scanning step of 0.8 µm). The full fluorescence spectrum was recorded from each scanned point (typically 30 × 30 spectra per cell, 0.05 s per spectrum). […]

For the molecule `COc1cccc2c1C(=O)c1c(O)c3c(c(O)c1C2=O)C[C@@](O)(C(=O)CO)C[C@@H]3O[C@H]1C[C@H](N)[C@H](O)[C@H](C)O1` [Doxo, Doxorubicin], the “IC50 ratio between NF-Doxo and free Doxo (times lower)” value in the assay on MDA-MB-231 was found to be 10 times. Besides, in the assay with MDA-MB-231 cells, the “fraction of intracellular fluorescence: cytosolic” value turned out to be 24.6 and the “fraction of intracellular fluorescence: nuclear” value amounted to 75.4.
